Data: ChEMBL document CHEMBL1777794, “Optimization of the physicochemical and pharmacokinetic attributes in a 6-azauracil series of P2X7 receptor antagonists leading to the discovery of the clinical candidate CE-224,535” (Bioorg Med Chem Lett, 2011)
pIC50: −log10 of the molar value. Blank lines part the entries; values can stand above or below the molecule they belong to. Active and inactive are the calls of the source. No cut-off for these calls is given here.

Legend:
[1] = test system: Salmonella typhimurium; test: Mutagenic activity in Salmonella Typhimurium by Ames assay; type: toxicity, organism-based; conditions: salmonella enterica subsp. enterica serovar typhimurium
[2] = molecular target: T1, P2X purinoceptor 7 (Homo sapiens, UniProt Q99572); test: Antagonist activity at P2X7 receptor expressed in HEK293 cells assessed as inhibition of ATP-induced YOPRO-1 uptake; type: functional, cell-based
T1 sequence (Q99572 whole entry): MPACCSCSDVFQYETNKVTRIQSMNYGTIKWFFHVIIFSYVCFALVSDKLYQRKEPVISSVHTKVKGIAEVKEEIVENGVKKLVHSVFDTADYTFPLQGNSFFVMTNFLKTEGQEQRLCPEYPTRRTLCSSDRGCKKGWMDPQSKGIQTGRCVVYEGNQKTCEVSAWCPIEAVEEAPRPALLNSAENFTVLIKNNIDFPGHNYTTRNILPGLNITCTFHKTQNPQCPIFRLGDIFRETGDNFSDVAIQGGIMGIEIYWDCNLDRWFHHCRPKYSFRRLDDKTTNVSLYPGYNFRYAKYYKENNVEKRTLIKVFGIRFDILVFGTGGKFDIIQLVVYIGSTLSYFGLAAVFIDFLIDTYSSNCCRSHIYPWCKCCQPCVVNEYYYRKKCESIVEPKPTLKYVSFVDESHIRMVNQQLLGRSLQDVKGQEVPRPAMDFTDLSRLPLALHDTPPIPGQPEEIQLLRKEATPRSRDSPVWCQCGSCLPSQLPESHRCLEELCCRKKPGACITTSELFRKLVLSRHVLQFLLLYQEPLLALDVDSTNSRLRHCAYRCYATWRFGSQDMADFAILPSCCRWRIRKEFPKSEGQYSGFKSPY

[3] = Oral bioavailability in monkey; type: ADME, organism-based, Macaca mulatta; conditions: rhesus monkey, in vivo
[4] = Cmax in monkey; type: ADME, organism-based, Macaca mulatta; conditions: rhesus monkey, in vivo
[5] = molecular target: T2, P2X purinoceptor 7 (Mus musculus) (UniProt Q9Z1M0); test: Antagonist activity at P2X7 receptor in mouse LPS-stimulated peritoneal macrophages assessed as inhibition of ATP-induced IL1-beta release at 10 uM by ELISA; type: functional
T2 sequence (whole entry): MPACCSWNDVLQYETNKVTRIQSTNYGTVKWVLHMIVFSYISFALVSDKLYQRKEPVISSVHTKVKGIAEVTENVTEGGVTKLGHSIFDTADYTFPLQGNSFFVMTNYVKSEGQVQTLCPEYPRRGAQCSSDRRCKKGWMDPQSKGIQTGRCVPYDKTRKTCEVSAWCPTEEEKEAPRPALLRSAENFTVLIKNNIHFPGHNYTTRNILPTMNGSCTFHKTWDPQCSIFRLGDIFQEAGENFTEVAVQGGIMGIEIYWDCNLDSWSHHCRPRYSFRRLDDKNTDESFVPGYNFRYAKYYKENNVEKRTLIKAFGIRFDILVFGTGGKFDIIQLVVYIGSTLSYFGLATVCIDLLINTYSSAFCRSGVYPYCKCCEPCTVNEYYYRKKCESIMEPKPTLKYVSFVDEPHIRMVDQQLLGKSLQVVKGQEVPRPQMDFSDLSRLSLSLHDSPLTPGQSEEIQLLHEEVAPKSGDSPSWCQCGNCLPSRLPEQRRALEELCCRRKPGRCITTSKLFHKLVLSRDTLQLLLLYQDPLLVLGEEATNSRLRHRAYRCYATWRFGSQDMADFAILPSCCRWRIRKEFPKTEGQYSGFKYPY

[6] = Oral bioavailability in rat at 5 mg/kg; type: ADME, organism-based; conditions: in vivo
[7] = molecular target: Cytochrome P450 2C9 (Homo sapiens, UniProt P11712); test: Inhibition of human CYP2C9; type: ADME
[8] = Volume of distribution at steady state in dog; type: ADME, organism-based, Canis lupus familiaris; conditions: in vivo, read-out: Vdss
[9] = Cmax in rat at 5 mg/kg, po; type: ADME, organism-based; design: dose 5 mg/kg, route oral; conditions: in vivo
[10] = Volume of distribution at steady state in monkey; type: ADME, organism-based, Macaca mulatta; conditions: rhesus monkey, in vivo; read-out: Vdss
[11] = Half life in rat; type: ADME, organism-based; conditions: in vivo
[12] = Half life in monkey; type: ADME, organism-based, Macaca mulatta; conditions: rhesus monkey, in vivo
[13] = Volume of distribution at steady state in rat; type: ADME, organism-based; conditions: in vivo, read-out: Vdss
[14] = Cmax in dog; type: ADME, organism-based, Canis lupus familiaris; conditions: in vivo
[15] = molecular target: Cytochrome P450 2C19 (Homo sapiens, UniProt P33261); test: Inhibition of human CYP2C19; type: ADME
[16] = molecular target: T3, P2X purinoceptor 7 (Homo sapiens) (UniProt Q99572); test: (§1) Antagonist activity at P2X7 receptor in human LPS-stimulated monocytes assessed as inhibition of ATP-induced IL1-beta release by ELISA in presence of human blood; type: functional, cell-based
T3 sequence (whole entry): T1 sequence (Q99572 whole entry)

[17] = molecular target: T1, P2X purinoceptor 7; test: as §1; type: functional, cell-based
[18] = Oral bioavailability in dog; type: ADME, organism-based, Canis lupus familiaris; conditions: in vivo
[19] = molecular target: T1, P2X purinoceptor 7; test: Antagonist activity at P2X7 receptor in human LPS-stimulated monocytes assessed as inhibition of ATP-induced IL1-beta release by ELISA; type: functional, cell-based
[20] = molecular target: Cytochrome P450 2D6 (Homo sapiens, UniProt P10635); test: Inhibition of human CYP2D6; type: ADME
[21] = Half life in dog; type: ADME, organism-based, Canis lupus familiaris; conditions: in vivo
[22] = molecular target: Cytochrome P450 3A4 (Homo sapiens, UniProt P08684); test: Inhibition of human CYP3A4; type: ADME
[23] = Trough plasma concentration in rheumatoid arthritis patient at 500 mg BID for 12 weeks; type: ADME; conditions: human, read-out: Cmin
[24] = molecular target: T4, Cytochrome P450 1A2 (Homo sapiens, UniProt P05177); test: Inhibition of human CYP1A2; type: ADME
T4 sequence (P05177 whole entry): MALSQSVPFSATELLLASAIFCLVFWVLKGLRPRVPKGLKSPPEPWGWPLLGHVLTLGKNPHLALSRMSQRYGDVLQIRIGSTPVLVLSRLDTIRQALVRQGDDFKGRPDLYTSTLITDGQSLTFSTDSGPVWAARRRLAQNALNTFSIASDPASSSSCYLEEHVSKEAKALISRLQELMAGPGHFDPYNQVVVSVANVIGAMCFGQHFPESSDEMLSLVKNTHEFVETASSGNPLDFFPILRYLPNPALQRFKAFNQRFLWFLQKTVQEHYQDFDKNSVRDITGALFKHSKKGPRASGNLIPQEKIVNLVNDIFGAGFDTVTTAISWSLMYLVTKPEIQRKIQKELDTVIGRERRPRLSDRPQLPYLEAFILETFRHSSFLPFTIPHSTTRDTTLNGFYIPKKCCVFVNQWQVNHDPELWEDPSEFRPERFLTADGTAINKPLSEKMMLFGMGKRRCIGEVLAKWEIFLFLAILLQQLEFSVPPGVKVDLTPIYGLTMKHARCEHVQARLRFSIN

[25] = test system: Rattus norvegicus; test: Toxicity in rat at 500 mg/kg, po qd for 4 days; type: organism-based; design: dose 500 mg/kg, route oral; conditions: in vivo, 96 h
[26] = (§2) Fraction unbound in human plasma; type: ADME, cell-free
[27] = molecular target: Voltage-gated inwardly rectifying potassium channel KCNH2 (Homo sapiens, UniProt Q12809); test: Inhibition of human ERG at 1 uM
[28] = molecular target: T3, P2X purinoceptor 7 (Homo sapiens); test: Antagonist activity at P2X7 receptor in human LPS-stimulated monocytes assessed as inhibition of ATP-induced IL1-beta release at 5 uM by ELISA; type: functional, cell-based
[29] = Apparent permeability from basolateral to apical side of human Caco2 cells; type: ADME, cell-based; conditions: Caco-2
[30] = in vivo; conditions: rat, plasma
[31] = Apparent permeability from apical to basolateral side of human Caco2 cells; type: ADME, cell-based; conditions: Caco-2
[32] = test system: Liver microsomes; test: Metabolic stability in human liver microsomes assessed as compound turnover; type: ADME, Microsome
[33] = test system: Hepatocyte; test: Metabolic stability in human hepatocytes assessed as compound turnover; type: ADME, cell-based
[34] = Plasma protein binding in human; type: ADME, cell-free; conditions: read-out: PPB
[35] = test system: Plasma; test: as §2; type: ADME, cell-free

Voltage-gated inwardly rectifying potassium channel KCNH2, sequence (Q12809 whole entry): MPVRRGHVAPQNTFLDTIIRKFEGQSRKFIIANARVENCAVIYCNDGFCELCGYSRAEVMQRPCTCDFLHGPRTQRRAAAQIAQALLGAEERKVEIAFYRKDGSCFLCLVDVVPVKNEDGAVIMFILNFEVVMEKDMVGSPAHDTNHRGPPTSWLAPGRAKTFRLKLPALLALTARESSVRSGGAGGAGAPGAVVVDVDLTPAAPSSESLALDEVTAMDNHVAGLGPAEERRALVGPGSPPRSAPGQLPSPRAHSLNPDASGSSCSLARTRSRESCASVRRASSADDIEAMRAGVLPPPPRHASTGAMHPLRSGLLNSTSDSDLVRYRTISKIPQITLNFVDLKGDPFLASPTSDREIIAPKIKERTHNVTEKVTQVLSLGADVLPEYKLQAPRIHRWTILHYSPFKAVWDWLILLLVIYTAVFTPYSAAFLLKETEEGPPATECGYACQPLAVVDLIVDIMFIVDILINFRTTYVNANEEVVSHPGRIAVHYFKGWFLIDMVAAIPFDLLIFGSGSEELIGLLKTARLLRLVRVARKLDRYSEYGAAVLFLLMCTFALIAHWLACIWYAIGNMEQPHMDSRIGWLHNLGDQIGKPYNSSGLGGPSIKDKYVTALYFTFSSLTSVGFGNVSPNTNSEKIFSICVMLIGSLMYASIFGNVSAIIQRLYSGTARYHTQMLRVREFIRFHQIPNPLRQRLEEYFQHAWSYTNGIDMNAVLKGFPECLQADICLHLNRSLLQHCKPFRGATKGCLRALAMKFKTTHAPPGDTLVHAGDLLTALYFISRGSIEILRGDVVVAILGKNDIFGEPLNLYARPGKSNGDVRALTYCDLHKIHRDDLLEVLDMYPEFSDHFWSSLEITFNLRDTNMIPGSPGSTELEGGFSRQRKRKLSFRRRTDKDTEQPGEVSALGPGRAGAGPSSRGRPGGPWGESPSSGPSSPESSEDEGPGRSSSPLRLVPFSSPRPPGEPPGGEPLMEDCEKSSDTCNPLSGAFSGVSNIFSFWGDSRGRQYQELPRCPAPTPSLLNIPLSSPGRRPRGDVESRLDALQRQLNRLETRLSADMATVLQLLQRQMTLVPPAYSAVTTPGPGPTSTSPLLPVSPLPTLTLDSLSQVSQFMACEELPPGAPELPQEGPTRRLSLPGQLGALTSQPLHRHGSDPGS
Cytochrome P450 3A4, sequence (P08684 whole entry): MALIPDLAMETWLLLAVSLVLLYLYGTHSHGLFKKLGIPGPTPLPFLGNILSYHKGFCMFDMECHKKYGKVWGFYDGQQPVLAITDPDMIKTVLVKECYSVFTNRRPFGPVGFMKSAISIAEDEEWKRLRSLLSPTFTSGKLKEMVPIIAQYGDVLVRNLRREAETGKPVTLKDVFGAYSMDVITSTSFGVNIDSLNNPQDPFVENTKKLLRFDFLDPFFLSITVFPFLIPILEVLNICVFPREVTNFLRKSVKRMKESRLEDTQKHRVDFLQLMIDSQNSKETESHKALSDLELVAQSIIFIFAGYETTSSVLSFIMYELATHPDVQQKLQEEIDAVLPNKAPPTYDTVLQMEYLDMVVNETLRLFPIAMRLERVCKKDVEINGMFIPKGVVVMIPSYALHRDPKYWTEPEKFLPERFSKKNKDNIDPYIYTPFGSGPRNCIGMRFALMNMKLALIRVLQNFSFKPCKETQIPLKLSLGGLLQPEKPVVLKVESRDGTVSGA
Cytochrome P450 2D6, sequence (P10635 whole entry): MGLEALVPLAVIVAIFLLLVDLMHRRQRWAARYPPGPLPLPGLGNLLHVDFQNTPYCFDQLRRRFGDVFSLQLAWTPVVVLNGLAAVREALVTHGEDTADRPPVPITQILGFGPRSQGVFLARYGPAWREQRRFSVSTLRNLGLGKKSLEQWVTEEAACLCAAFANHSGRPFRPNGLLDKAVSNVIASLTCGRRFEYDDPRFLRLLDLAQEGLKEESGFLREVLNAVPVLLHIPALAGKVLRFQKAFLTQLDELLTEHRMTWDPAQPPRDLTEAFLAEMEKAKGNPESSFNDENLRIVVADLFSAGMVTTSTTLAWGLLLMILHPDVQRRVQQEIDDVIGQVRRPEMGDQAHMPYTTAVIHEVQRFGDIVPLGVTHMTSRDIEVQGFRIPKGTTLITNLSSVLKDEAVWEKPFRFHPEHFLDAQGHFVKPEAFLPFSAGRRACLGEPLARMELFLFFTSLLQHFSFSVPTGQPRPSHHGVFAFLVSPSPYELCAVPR
Cytochrome P450 2C19, sequence (P33261 whole entry): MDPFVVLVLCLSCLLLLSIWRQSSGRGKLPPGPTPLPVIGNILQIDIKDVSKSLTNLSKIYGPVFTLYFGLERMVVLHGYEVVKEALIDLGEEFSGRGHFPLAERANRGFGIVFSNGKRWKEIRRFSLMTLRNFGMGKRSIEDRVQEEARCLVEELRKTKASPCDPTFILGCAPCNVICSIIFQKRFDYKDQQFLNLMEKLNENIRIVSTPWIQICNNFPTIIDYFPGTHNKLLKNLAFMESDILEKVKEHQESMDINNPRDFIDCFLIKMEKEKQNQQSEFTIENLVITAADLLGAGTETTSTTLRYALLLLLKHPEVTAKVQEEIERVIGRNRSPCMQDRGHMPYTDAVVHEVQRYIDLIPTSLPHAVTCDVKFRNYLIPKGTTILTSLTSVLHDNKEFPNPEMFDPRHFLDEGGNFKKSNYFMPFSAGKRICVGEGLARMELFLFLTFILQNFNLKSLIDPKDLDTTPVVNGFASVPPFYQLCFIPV
Cytochrome P450 2C9, sequence (P11712 whole entry): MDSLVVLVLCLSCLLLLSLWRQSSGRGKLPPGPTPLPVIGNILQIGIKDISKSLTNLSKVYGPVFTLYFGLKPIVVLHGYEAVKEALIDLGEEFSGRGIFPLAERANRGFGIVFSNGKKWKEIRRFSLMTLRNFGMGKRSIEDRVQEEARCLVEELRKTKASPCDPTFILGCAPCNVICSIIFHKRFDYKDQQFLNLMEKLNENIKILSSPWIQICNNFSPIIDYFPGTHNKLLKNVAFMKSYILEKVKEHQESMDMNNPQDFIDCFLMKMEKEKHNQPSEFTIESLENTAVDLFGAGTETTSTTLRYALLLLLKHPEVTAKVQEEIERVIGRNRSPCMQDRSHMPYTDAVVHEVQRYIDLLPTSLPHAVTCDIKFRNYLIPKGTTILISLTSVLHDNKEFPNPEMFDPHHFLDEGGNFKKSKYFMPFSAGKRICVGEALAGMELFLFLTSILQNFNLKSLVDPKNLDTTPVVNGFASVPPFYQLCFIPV

Compound: COC[C@H](O)Cn1c(=O)cnn(-c2ccc(Cl)c(C(=O)NCC3(O)CCCCCC3)c2)c1=O [CE-224535]
Activity [1]: Non-toxic
pIC50 [2]: 8.40
bioavailability [3]: 22%
Cmax [4]: 550 ng/mL
inhibition [5]: Active
bioavailability [6]: 2.6%
pIC50 [7]: < 4.52
Vd [8]: 0.61 L/kg
Cmax [9]: 210 ng/mL
Vd [10]: 0.68 L/kg
half-life [11]: 144 min
half-life [12]: 46.2 min
Vd [13]: 7.6 L/kg
Cmax [14]: 3500 ng/mL
pIC50 [15]: < 4.52
IC90 [16]: 4.7 nM
pIC50 [17]: 9.10
bioavailability [18]: 59%
pIC50 [19]: 8.85
pIC50 [20]: < 4.52
half-life [21]: 27.6 min
pIC50 [22]: < 4.52
concentration at 2016 h [23]: 519 nM
pIC50 [24]: < 4.52
Activity [25]: Non-toxic
fraction unbound [26]: 0.27
inhibition (INH) [27]: Not Active

Compound: O=C(NCCc1cccnc1)c1cc(-n2ncc(=O)[nH]c2=O)ccc1Cl
inhibition [28]: 22%

Compound: O=C(NCCc1ccccc1Cl)c1cc(-n2ncc(=O)[nH]c2=O)ccc1Cl
Papp B→A [29]: 21 ×10⁻⁶ cm/s
pIC50 [2]: 6.52
clearance [30]: 9.5 mL/min/kg
Papp A→B [31]: 10 ×10⁻⁶ cm/s
Stability [32]: Stable
Cmax [9]: 2000 ng/mL
Stability [33]: Stable
IC90 [16]: > 10000 nM
pIC50 [17]: < 5.00
pIC50 [19]: 6.54
fraction unbound [34]: < 0.005
Fu [35]: 0.005

Compound: O=C(NCCc1ccncc1)c1cc(-n2ncc(=O)[nH]c2=O)ccc1Cl
inhibition [28]: 22%

Compound: COCCn1c(=O)cnn(-c2ccc(Cl)c(C(=O)NCC3(O)CCCCCC3)c2)c1=O
pIC50 [17]: 7.15
pIC50 [19]: 7.72

Compound: CCn1c(=O)cnn(-c2ccc(Cl)c(C(=O)NCC3(O)CCCCCC3)c2)c1=O
pIC50 [17]: 6.73
pIC50 [19]: 7.07

Compound: CC(C)Cn1c(=O)cnn(-c2ccc(Cl)c(C(=O)NCC3(O)CCCCCC3)c2)c1=O
pIC50 [17]: 6.70
pIC50 [19]: 7.47

Compound: O=C(NCC1CCCCC1)c1cc(-n2ncc(=O)[nH]c2=O)ccc1Cl
pIC50 [19]: 5.89

Compound: Cn1c(=O)cnn(-c2ccc(Cl)c(C(=O)NCC3(O)CCCCCC3)c2)c1=O
pIC50 [19]: 7.38

Second part, the molecule after the results:

inhibition [28]: 2%
Compound: CCOCCCNC(=O)c1cc(-n2ncc(=O)[nH]c2=O)ccc1Cl

pIC50 [19]: 5.44
Compound: CCCCCCNC(=O)c1cc(-n2ncc(=O)[nH]c2=O)ccc1Cl

inhibition [28]: 15%
Compound: O=C(NCCc1ccccn1)c1cc(-n2ncc(=O)[nH]c2=O)ccc1Cl

pIC50 [19]: < 5.30
Compound: CCCOCCNC(=O)c1cc(-n2ncc(=O)[nH]c2=O)ccc1Cl

pIC50 [19]: 5.55
Compound: CCCCCNC(=O)c1cc(-n2ncc(=O)[nH]c2=O)ccc1Cl

pIC50 [19]: 6.03
Compound: O=C(NCCc1ccccc1)c1cc(-n2ncc(=O)[nH]c2=O)ccc1Cl
